What was measured:
Met kinase [1] = biological target: T1, Met kinase (Homo sapiens, UniProt P08581); assay: Met kinase inhibition (cell); assay type: cell-based
Target sequence in this assay (P08581 25-1390): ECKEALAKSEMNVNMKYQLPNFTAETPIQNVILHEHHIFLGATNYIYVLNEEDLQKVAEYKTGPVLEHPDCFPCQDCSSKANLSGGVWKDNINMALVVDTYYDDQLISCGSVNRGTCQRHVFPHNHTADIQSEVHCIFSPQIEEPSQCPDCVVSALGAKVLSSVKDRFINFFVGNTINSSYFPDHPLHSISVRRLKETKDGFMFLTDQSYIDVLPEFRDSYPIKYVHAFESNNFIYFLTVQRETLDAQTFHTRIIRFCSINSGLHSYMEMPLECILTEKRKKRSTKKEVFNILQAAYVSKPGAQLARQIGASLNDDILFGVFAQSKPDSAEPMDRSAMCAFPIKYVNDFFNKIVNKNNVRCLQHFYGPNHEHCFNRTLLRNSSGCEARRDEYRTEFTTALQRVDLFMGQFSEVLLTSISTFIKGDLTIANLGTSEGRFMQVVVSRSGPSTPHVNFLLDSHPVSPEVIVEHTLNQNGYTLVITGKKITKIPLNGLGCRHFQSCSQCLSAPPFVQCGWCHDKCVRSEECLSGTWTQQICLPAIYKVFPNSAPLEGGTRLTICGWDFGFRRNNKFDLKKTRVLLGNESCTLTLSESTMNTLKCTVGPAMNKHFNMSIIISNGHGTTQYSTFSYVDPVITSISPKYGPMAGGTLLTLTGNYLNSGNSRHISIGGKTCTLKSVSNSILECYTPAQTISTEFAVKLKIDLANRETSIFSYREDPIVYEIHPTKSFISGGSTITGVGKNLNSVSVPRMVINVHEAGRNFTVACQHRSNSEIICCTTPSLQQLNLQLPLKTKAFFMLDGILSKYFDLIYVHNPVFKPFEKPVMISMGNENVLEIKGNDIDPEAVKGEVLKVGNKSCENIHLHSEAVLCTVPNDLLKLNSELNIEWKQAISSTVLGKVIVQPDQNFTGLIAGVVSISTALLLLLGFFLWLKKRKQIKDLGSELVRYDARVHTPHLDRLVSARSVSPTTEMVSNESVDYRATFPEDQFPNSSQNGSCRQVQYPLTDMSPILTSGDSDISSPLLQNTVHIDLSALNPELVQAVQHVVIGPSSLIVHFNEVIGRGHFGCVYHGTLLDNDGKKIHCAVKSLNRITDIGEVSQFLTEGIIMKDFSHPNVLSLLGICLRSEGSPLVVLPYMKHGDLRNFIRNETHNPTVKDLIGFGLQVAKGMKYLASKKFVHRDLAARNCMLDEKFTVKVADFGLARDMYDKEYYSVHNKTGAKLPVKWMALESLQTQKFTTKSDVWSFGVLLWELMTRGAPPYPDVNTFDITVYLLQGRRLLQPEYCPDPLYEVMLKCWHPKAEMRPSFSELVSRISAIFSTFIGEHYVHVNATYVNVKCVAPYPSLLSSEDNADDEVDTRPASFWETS

Met kinase [2] = biological target: T1, Met kinase; assay: Met kinase inhibition, flashplate method (enzyme); assay type: biochemical; design: 6His (N); purchased Upstate 14-526; host or cells: Sf21 insect cells (S. frugiperda), baculovirus
From the text: According to the manufacturer's data (Met, active, Upstate, catalogue No. 14-526), Met kinase is expressed for the purposes of protein production in insect cells (Sf21; S. frugiperda) and subsequent affinity-chromatographic purification as “N-terminal 6His-tagged” recombinant human protein in a baculovirus expression vector.
The test plates used are 96-well Flashplate® microtitre plates from Perkin Elmer (Cat. No. SMP200). The components of the kinase reaction described below are pipetted into the assay plate. The Met kinase and the substrate poly Ala-Glu-Lys-Tyr, (pAGLT, 6:2:5:1), are incubated for 3 hrs at room temperature with radioactively labelled ^33P-ATP in the presence and absence of test substances in a total volume of 100 μl. The reaction is terminated using 150 μl of a 60 mM EDTA solution. After incubation for a further 30 min at room temperature, the supernatants are filtered off with suction, and the wells are washed three times with 200 μl of 0.9% NaCl solution each time. The measurement of the bound radioactivity is carried out by means of a scintillation measuring instrument (Topcount NXT, Perkin-Elmer).
The full value used is the inhibitor-free kinase reaction. This should be approximately in the range 6000-9000 cpm. The pharmacological zero value used is staurosporin in a final concentration of 0.1 mM. The inhibitory values (IC50) are determined using the RS1_MTS program.
Kinase reaction conditions per well: • 30 μl of assay buffer • 10 μl of substance to be tested in assay buffer with 10% of DMSO • 10 μl of ATP (final concentration 1 μM cold, 0.35 μCi of ^33P-ATP) • 50 μl of Met kinase/substrate mixture in assay buffer; • (10 ng of enzyme/well, 50 ng of pAGLT/well) • Solutions used: • Assay buffer: • 50 mM HEPES • 3 mM magnesium chloride • 3 μM sodium orthovanadate • 3 mM manganese(II) chloride • 1 mM dithiothreitol (DTT) • pH=7.5 (to be set using sodium hydroxide) • Stop solution: • 60 mM Titriplex III (EDTA) • ^33P-ATP: Perkin-Elmer; • Met kinase: Upstate, Cat. No. 14-526, Stock 1 μg/10 μl; spec. activity 954 U/mg; • Poly-Ala-Glu-Lys-Tyr, 6:2:5:1: Sigma Cat. No. P1152 In-Vivo Tests
Target sequence in this assay (P08581 956-1390 limits assumed): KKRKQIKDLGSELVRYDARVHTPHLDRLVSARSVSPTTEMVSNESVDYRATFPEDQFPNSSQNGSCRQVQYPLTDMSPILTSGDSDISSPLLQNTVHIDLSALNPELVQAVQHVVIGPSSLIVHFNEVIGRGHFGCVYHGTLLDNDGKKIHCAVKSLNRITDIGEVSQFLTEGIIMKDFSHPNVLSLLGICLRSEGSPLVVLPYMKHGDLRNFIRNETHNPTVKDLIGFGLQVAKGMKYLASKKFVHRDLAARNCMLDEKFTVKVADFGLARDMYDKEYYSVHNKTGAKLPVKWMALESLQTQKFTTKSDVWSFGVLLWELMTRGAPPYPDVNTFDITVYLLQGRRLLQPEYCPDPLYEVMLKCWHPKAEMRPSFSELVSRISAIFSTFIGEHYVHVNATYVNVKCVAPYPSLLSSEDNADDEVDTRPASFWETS

Row | Structure (SMILES) | IC50 (Met kinase [1]) | IC50 (Met kinase [2])
1 | CN1CCN(c2cnc(-c3cccc(C(F)(F)c4nnc5ccc(-c6cccc(C#N)c6)nn45)c3)nc2)CC1 [Compound A23] | 1 to 100 nM | 1 to 100 nM
2 | N#Cc1cccc(-c2ccc3nnc(C(F)(F)c4cccc(-c5ncc(N6CCNCC6)cn5)c4)n3n2)c1 [Compound A24] | 1 to 100 nM | 1 to 100 nM
3 | Cn1cc(-c2ccc3nnc(C4(c5cccc(-c6ncc(-c7cnn(CCN8CCCC8)c7)cn6)c5)CC4)n3n2)cn1 [Compound A8] | 1 to 100 nM | 1 to 100 nM
4 | N#Cc1cccc(-c2ccc3nnc(C(F)(F)c4cccc(-c5ncc(Br)cn5)c4)n3n2)c1 [Compound A3a, 3-(3-{[3-(5-bromopyrimidin-2-yl)phenyl]difluoromethyl}-1,2,4-triazolo[4,3-b]-pyridazin-6-yl)benzonitrile] | 1 to 100 nM | 1 to 100 nM
5 | Cn1cc(-c2ccc3nnc(C(F)(F)c4cccc(-c5ncc(-c6cnn(CCN7CCCC7)c6)cn5)c4)n3n2)cn1 [Compound A7] | 1 to 100 nM | 1 to 100 nM
6 | Cc1ccc2nnc(C(F)(F)c3cccc(-c4ncc(-c5cnn(CCN6CCCC6)c5)cn4)c3)n2n1 [Compound A21] | 1 to 100 nM | 1 to 100 nM
7 | Cc1ccc2nnc(Cc3cccc(-c4ncc(Br)cn4)c3)n2n1 [Compound A6] | 100 to 10000 nM | 1 to 100 nM
8 | N#Cc1cccc(-c2ccc3nnc(Cc4cccc(-c5ncc(-c6cnn(CCN7CCCC7)c6)cn5)c4)n3n2)c1 [Compound A20] | 1 to 100 nM | 1 to 100 nM
9 | CN1CCN(c2cnc(-c3cccc(Cc4nnc5ccc(-c6cnn(C)c6)nn45)c3)nc2)CC1 [Compound A11, 3-{3-[5-(4-methylpiperazin-1-yl)pyrimidin-2-yl]benzyl}-6-(1-methyl-1H-pyrazol-4-yl)-1,2,4-triazolo[4,3-b]pyridazine] | 1 to 100 nM | 1 to 100 nM
10 | N#Cc1cccc(-c2ccc3nnc(C(F)(F)c4cccc(-c5ncc(-c6cnn(CCN7CCCC7)c6)cn5)c4)n3n2)c1 [Compound A19] | 1 to 100 nM | 1 to 100 nM
11 | Cn1cc(-c2ccc3nnc(C(F)(F)c4cccc(-c5ncccn5)c4)n3n2)cn1 [Compound A26, 3-[difluoro-(3-pyrimidin-2-ylphenyl)methyl]-6-(1-methyl-1H-pyrazol-4-yl)-1,2,4-triazolo[4,3-b]pyridazine] | 1 to 100 nM | 1 to 100 nM
12 | Cn1cc(-c2ccc3nnc(Cc4cccc(-c5ncc(Br)cn5)c4)n3n2)cn1 [Compound A1, 3-[3-(5-bromopyrimidin-2-yl)benzyl]-6-(1-methyl-1H-pyrazol-4-yl)-1,2,4-triazolo[4,3-b]pyridazine] | 1 to 100 nM | 1 to 100 nM
13 | Cc1ccc2nnc(Cc3cccc(-c4ncc(-c5cnn(CCN6CCCC6)c5)cn4)c3)n2n1 [Compound A9] | 1 to 100 nM | 1 to 100 nM
14 | Cc1ccc2nnc(C(F)(F)c3cccc(-c4ncc(OCC5CCN(C)CC5)cn4)c3)n2n1 [Compound A41, 3-(difluoro-{3-[5-(1-methylpiperidin-4-ylmethoxy)pyrimidin-2-yl]phenyl}methyl)-6-methyl-1,2,4-triazolo[4,3-b]pyridazine] | 1 to 100 nM | 1 to 100 nM
15 | N#Cc1cccc(-c2ccc3nnc(Cc4cccc(-c5ncc(Br)cn5)c4)n3n2)c1 [Compound A5, 3-{3-[3-(5-bromopyrimidin-2-yl)benzyl]-1,2,4-triazolo[4,3-b]-pyridazin-6-yl}benzonitrile] | 1 to 100 nM | 1 to 100 nM
16 | Cn1cc(-c2ccc3nnc(C4(c5cccc(-c6ncc(Br)cn6)c5)CC4)n3n2)cn1 [Compound A4] | 100 to 10000 nM | 1 to 100 nM
17 | OCCn1cc(-c2ccc3nnc(Cc4cccc(-c5ncc(Br)cn5)c4)n3n2)cn1 [Compound A43, 2-(4-{3-[3-(5-bromopyrimidin-2-yl)benzyl]-1,2,4-triazolo-[4,3-b]pyridazin-6-yl}pyrazol-1-yl)ethanol] | 1 to 100 nM | 1 to 100 nM
18 | Cc1ccc2nnc(C(F)(F)c3cccc(-c4ncc(Br)cn4)c3)n2n1 [Compound A27, 3-{[3-(5-bromopyrimidin-2-yl)phenyl]difluoromethyl}-6-methyl-1,2,4-triazolo[4,3-b]pyridazine] | 1 to 100 nM | 1 to 100 nM
19 | Cn1cc(-c2ccc3nnc(C(F)(F)c4cccc(-c5ncc(Br)cn5)c4)n3n2)cn1 [Compound A3, 3-{[3-(5-bromopyrimidin-2-yl)phenyl]difluoromethyl}-6-(1-methyl-1H-pyrazol-4-yl)-1,2,4-triazolo[4,3-b]pyridazine] | 1 to 100 nM | 1 to 100 nM
20 | CC(c1cccc(-c2ncc(-c3cnn(CCN4CCCC4)c3)cn2)c1)c1nnc2ccc(-c3cnn(C)c3)nn12 (stereo not drawn) [Compound A22] | 1 to 100 nM | 1 to 100 nM
21 | Cc1ccc2nnc(C(F)(F)c3cccc(-c4ncc(N5CCN(C)CC5)cn4)c3)n2n1 [Compound A25] | 1 to 100 nM | 1 to 100 nM
22 | Cc1ccc2nnc(Cc3cccc(-c4ncc(N5CCN(C)CC5)cn4)c3)n2n1 [Compound A17] | 1 to 100 nM | 1 to 100 nM
23 | Cn1cc(-c2ccc3nnc(C(F)(F)c4cccc(-c5ncc(OCCN6CCOCC6)cn5)c4)n3n2)cn1 [Compound A12, 3-(difluoro-{3-[5-(2-morpholin-4-ylethoxy)pyrimidin-2-yl]-phenyl}methyl)-6-(1-methyl-1H-pyrazol-4-yl)-1,2,4-triazolo[4,3-b]pyridazine] | 1 to 100 nM | 1 to 100 nM
24 | CN1CCN(c2cnc(-c3cccc(C(F)(F)c4nnc5ccc(-c6cnn(C)c6)nn45)c3)nc2)CC1 [Compound A16] | 1 to 100 nM | 1 to 100 nM

Reference: US8497266B2, “3-(3-pyrimidin-2-ylbenzyl)-1,2,4-triazolo[4,3-b]pyridazine derivatives as MET kinase inhibitors” (Merck Patent GmbH, priority 2008, dated 2013)
